Test results as given in US20110064794A1, “Drug Delivery System, its Preparation Process and Use” (priority 2008, published 2011).

What was measured:
white blood cell = assay: routine white blood cell count in H22 model mice; assay type: in vivo, nude mice; details: 20 mg·kg^−1
Protocol: (§1) Transplanted liver cancer (H22) model in nude mice were established for antitumor drug tests. The nude mice were randomly divided into six groups (10 animals for each group): blank control group, cyclophosphamide positive control group (CTX 20 mg·kg^−1), treatment groups (high, medium and low dosage, 0.20 mg·kg^−1, 0.10 mg·kg^−1 and 0.05 mg·kg^−1) and solution group (non-nanoparticle formulation). The negative control group received injection of physiological saline. After inoculation for four days and with the tumors grown to a certain volume, the mice were treated on the 5th, 7th, 9th, 11th and 13th day. On the 14th day, the mice were sacrificed by cervical dislocation and weighed, dissected to peel off the tumor tissue which was weighed by an electronic balance. The tumor-inhibition rates were calculated by using the following formula: […]
(§2) all the data were expressed as mean±standard deviation (i.e. x±SD); the mice were bled at caudal vein for routine white blood cell count.

[1] = tested on: Transplanted liver cancer (H22); assay: anti-tumor test in transplanted liver cancer (H22) model; assay type: in vivo, nude mice; details: 20 mg/kg
Protocol: as §1, §2

[2] = tested on: human laryngocarcinoma epithelial cells (Hep-2); assay: MTT inhibition of tumor cell growth, Hep-2; assay type: cell-based; details: 0.1, 1, 10 and 100 μM in DMSO, different culture times (FIG. 7)
Excerpt: Microplate Reader (Switzerland Sunrise); 3-(4,5-dimethylthiazol-2-yl)-2, 5-diphenyl-2H-tetrazolium bromide (MTT) (America Fluka); DMSO (Sigma); RPMI 1640 media (GIBCO); fetal bovine serum (FBS) (Tian Jin TBD Center for Biotechnology Development).
Studies were respectively carried out on the inhibition effect of cucurbitacin B HSA nanoparticle on the growth of tumor cells in vitro in human laryngocarcinoma epithelial cells (Hep-2), human hepatoma carcinoma cell (HepG-2), human adenocarcinoma of lung cell (A549), and inhibition effect of the same dosage of cucurbitacin B emulsion and liposomes in these cells were compared.
Cells were cultured in RPMI 1640 media containing 10% FBS in an incubator at 37° C. and 5% CO2, and passaged every 3 to 4 days. […] OD (optical density) value of each well was determined in the microplate reader (at 570 nm wavelength). Cell inhibition rate was calculated according to OD value, and the following formula was used: cell inhibition rate (IR)=[(mean OD value of control group−mean OD value of blank group)−(mean OD value of test groups−mean OD value of blank group)]/(mean OD value of control group−mean OD value of blank group). […]
Inhibition effects of various formulations of CuB (cucurbitacin B/HSA solution, CuB HSA nanoparticle, CuB liposome and CuB emulsion) on Hep-2, A549 and HepG-2 tumor cells were detected.

Compound: O=P1(N(CCCl)CCCl)NCCCO1 (stereo not shown) [CTX, cyclophosphamide]
- leukocyte number (white blood cell): 3.11e+09 L⁻¹
- Body weight (g) begin [1]: 19.77 g
- Body weight (g) end [1]: 21.08 g
- Number of mice (begin/end) [1]: 10/9
- Tumor-inhibition rate (%) ([1]; day 14): 55.3%
- Weight of tumor (g) (x ± SD) ([1]; day 14): 1.26 ± 0.63 g

Compound: CC(=O)OC(C)(C)/C=C/C(=O)[C@](C)(O)[C@H]1[C@H](O)C[C@@]2(C)[C@@H]3CC=C4[C@H](C[C@H](O)C(=O)C4(C)C)[C@]3(C)C(=O)C[C@]12C [cucurbitacin B]
- inhibition effect on the growth of Hep-2 cells [2]: enhanced along with the extended time and increased dose
